Reference: ChEMBL document CHEMBL1687773 (Antimicrob Agents Chemother, 2010)

Key:
[1] = tested on: Human immunodeficiency virus 1; assay: Antiviral activity against HIV1 NL4-3 infected in human MT2 cells assessed as inhibition of virus-induced cell death at 0.5 multiplicities of infection after 6 days; type: functional, organism-based; settings: Human immunodeficiency virus 1, NL4-3, MT2, 144 h
[2] = tested on: Human immunodeficiency virus 1; assay: Antiviral activity against HIV1 NL4-3 harboring reverse transcriptase V108I, E138K mutant infected in human SupT1 cells derived from 9 viral passages with lersivirine assessed as inhibition of viral replication after 21 days relative to drug sensitive HIV1 NL4-3; type: functional, SUP-T1
[3] = tested on: Human immunodeficiency virus 1; assay: Antiviral activity against HIV1 NL4-3 infected in human SupT1 cells derived from 11 viral passages assessed as inhibition of viral replication after 21 days relative to drug sensitive HIV1 NL4-3; type: functional, SUP-T1
[4] = tested on: Human immunodeficiency virus 1; assay: Antiviral activity against HIV1 NL4-3 harboring reverse transcriptase V108I, E138K, F227F/L mutant infected in human SupT1 cells derived from 11 viral passages with lersivirine assessed as inhibition of viral replication after 21 days relative to drug sensitive HIV1 NL4-3; type: functional, SUP-T1
[5] = tested on: Human immunodeficiency virus 1; assay: Antiviral activity against HIV1 NL4-3 harboring reverse transcriptase V108I, H221Y, F227F/L, M230M/I mutant infected in human SupT1 cells derived from 11 viral passages with lersivirine assessed as inhibition of viral replication after 21 days relative to drug sensitive HIV1 NL4-3; type: functional, SUP-T1
[6] = tested on: Human immunodeficiency virus 1; assay: Antiviral activity against HIV1 NL4-3 harboring reverse transcriptase L100I, K103Q, H221H/Y mutant infected in human SupT1 cells derived from 11 viral passages with efavirenz assessed as inhibition of viral replication after 21 days relative to drug sensitive HIV1 NL4-3; type: functional, SUP-T1

Compound | EC50 [1] [nM] | fold change (FC) [2] | fold change (FC) [3] | fold change (FC) [4] | fold change (FC) [5] | fold change (FC) [6]
CC(C)(C)NC(=O)[C@@H]1CN(Cc2cccnc2)CCN1C[C@@H](O)C[C@@H](Cc1ccccc1)C(=O)N[C@H]1c2ccccc2C[C@H]1O | 0.5 | – | – | – | – | –
C=C(C)[C@@H]1CC[C@]2(C(=O)O)CC[C@]3(C)[C@H](CC[C@@H]4[C@@]5(C)CC[C@H](OC(=O)CC(C)(C)C(=O)O)C(C)(C)[C@@H]5CC[C@]43C)[C@@H]12 [BEVIRIMAT] | 0.5 | – | – | – | – | –
CC(C)Nc1cccnc1N1CCN(C(=O)c2cc3cc(NS(C)(=O)=O)ccc3[nH]2)CC1 [DELAVIRDINE] | – | 1.5 | 0.3 | 1.8 | 0.2 | 16.4
Cc1cc(C#N)cc(C)c1Oc1nc(Nc2ccc(C#N)cc2)nc(N)c1Br [ETRAVIRINE] | 0.5 | – | – | – | – | –
Cc1ccnc2c1NC(=O)c1cccnc1N2C1CC1 [NEVIRAPINE] | – | 0.9 | 0.2 | 12.2 | 6.4 | 1
Cc1cn([C@H]2C[C@H](N=[N+]=[N-])[C@@H](CO)O2)c(=O)[nH]c1=O [ZIDOVUDINE] | – | 0.4 | 0.2 | 0.6 | 0.1 | 0.1
